Values after ≈ are worked out from the molar mass of the structure shown. Where two headings read alike, the source gives them in different places.
Key:
MRSA ATCC BAA-44 [1] = assay: MIC in the presence of 20 μM Of1 / alkaloid; assay type: cell-based, S. aureus; conditions: MRSA ATCC BAA-44; for MIC (+Of1): in the presence of 20 μM Of1; for fold of potentiation: MIC / MIC (+20 μM Of1)
Protocol: Indoline alkaloid compounds were then screened for the ability to potentiate the activity of methicillin against MRSA. A multi-drug resistant MRSA strain (ATCC: BAA-44) was selected for the initial screening. […] To each well, 20 μM of each individual indoline alkaloid was added and the plates were incubated at 37° C. for 16 hrs.
The MRSA strain ATCC BAA-44 and the methicillin-sensitive S. aureus (MSSA) strain ATCC 25923 were used to determine the MIC values of various antimicrobial compounds in the presence of 20 μM Of1. The experiment was conducted similarly to the CLSI MIC determination described previously; however, MHB was supplemented with 40 μM Of1 prior to set up and inoculation. The final concentration of Of1 after inoculation with BAA-44 was 20 μM.

MRSA ATCC BAA-44 [2] = assay: MIC, CLSI broth microdilution; assay type: cell-based, S. aureus; conditions: MRSA ATCC BAA-44, compound alone
HeLa cells = assay: Mammalian cytotoxicity, CellTiter-Glo viability assay; assay type: cell-based, human; conditions: 24 hours
Protocol: (§1) To evaluate the cytotoxicity of Of1 in mammalian cells, a cell viability assay was carried out using CellTiter-Glo luminescent cell viability assay kit (Promega). Human cervixcal adenocarcinoma HeLa cells were seeded on white, cell-culture treated 96-well plates (Corning: 3917) with Dulbecco's modified Eagle's medium (DMEM) supplemented with 10% fetal calf serum (FCS), 1% penicillin/streptomycin, at the densities of 20,000 cells/well. The medium volume for each well was 100 μL. Cells were incubated at 37° C. in 5% CO2/95% air for 16 hours. The medium was removed from each well and replaced with 99 μL of warmed fresh medium. To each well, 1 μL of Of1 analog was added in DMSO to final concentrations of 0.5-32 μg/mL. Each series was performed in triplicate. After incubation at 37° C. for another 24 hours, the plates were equilibrated to room temperature for 30 minutes. 100 μL of CellTiter-Glo reagent (Promega) was added to each well and mixed for 2 minutes on an orbital shaker. The plate was incubated at room temperature for another 10 minutes to stabilize luminescent signal. The luminescence of each sample was recorded in an Envision Multilabel Plate Reader (Perkin Elmer).

MRSA ATCC 33592 [3] = assay: Minimum resensitizing concentration (MRC), modified broth microdilution; assay type: cell-based, S. aureus; conditions: MRSA ATCC 33592; meropenem at 4 μg/ml
Protocol: (§2) For these activity tests, AMOXICILLIN® was used in combination with clavulanic acid (a.k.a., AUGMENTIN®), CEFAZOLIN®, and MEROPENEM® (an ultra-broad-spectrum carbapenem). […] To assess activity of each analog as a resistance-modifying agent (RMA), a modified broth microdilution assay was used. Briefly, this involves incubating MRSA with 2-fold serial dilutions of a compound in the presence of each individual antibiotic at its Clinical Laboratory Standards Institutes (CLSI)-defined sensitive concentration. For AMOXICILLIN®/clavulanic acid, this concentration is 4/2 μg/ml (8-fold potentiation), for CEFAZOLIN®, 8 μg/ml (16-fold potentiation) and for MEROPENEM®, 4 μg/ml (4-fold potentiation). Following overnight incubation, plates were examined for bacterial growth, or lack thereof. Compounds were tested at concentrations ranging from 0.5-32 μg/ml. […] The half growth inhibitory concentration (GI50) of each analog was determined by fitting the data using KaleidaGraph (v4.1.1, Synergy Software).
(§3) A modified broth microdilution assay was employed by incubating MRSA (ATCC: BAA-44) with Of1 in 2-fold series dilution in the presence of individual antibiotics at the highest sensitive concentration at 37° C. overnight. […] The MRC values were also determined for another three MRSA strains. […] Furthermore, the mammalian toxicity of Of1 was evaluated using human liver hepatocellular carcinoma HepG2 cell line in CellTiter Glo™ mammalian viability assay (Promega).
(§4) MRC screens were performed as follows: antibiotic MIC values where S. aureus is considered susceptible were determined from the CLSI handbook supplement. Analogs of Of1 were diluted to 5 mg/ml in DMSO. Antibiotic was prepared at twice the intended final concentration in Mueller Hinton Broth (MHB). For amoxicillin/clavulanic acid, the initial concentration was 8/4 μg/ml, for meropenem 8 μg/ml and for cefazolin 16 μg/ml. 50 μl of the antibiotic containing media was added to each well of 96 well plates and 100 μl was added to the top row. 1.28 μl of 5 mg/ml alkaloid solution was added to the top row of each plate to afford a concentration of 64 μg/ml in the top row of each plate and two fold serial dilutions were performed down the columns. Once the plates were prepared, a day culture of MRSA was diluted to OD600 0.002 and 50 μl was added to each well. The final concentration of MRSA was OD600 0.001, the final concentration of amoxicillin/clavulanic acid was 4/2 μg/ml, the final concentration of meropenem was 4 μg/ml the final concentration of cefazolin was 8 μg/ml, and the highest concentration of Of1 analog tested was 32 μg/ml. Plates were incubated overnight at 37° C. with shaking. The MRC value was determined as the concentration of Of1 analog in the presence of antibiotic at which there was no observable overnight growth.

MRSA ATCC BAA-44 [4] = assay: as above; assay type: cell-based, S. aureus; conditions: MRSA ATCC BAA-44
Protocol: as §2, §3, §4

MRSA ATCC 33592 [5] = assay: MIC, broth microdilution; assay type: cell-based, S. aureus; conditions: Staphylococcus aureus
Protocol: as §2, with “Activities listed in the table show the ability of the compounds of the invention to resensitize MRSA to a collection of β-lactam antibiotics. For these” for “For these”, “Synergy Software). Compounds 1a-1 are synthesized as shown in Scheme 1 below.” for “Synergy Software).”
The minimal inhibitory concentrations (MICs) of active Of1 analogs were determined by the broth microdilution method detailed in the Clinical and Laboratory Standards Institute handbook. […]

[6] = Mammalian cytotoxicity, CellTiter-Glo viability assay; assay type: cell-based, human; conditions: human, HeLa cells
Protocol: as §1

[7] = Staphylococcus aureus, read-out: MIC

Compound	MIC (+Of1) (MRSA ATCC BAA-44 [1])	MIC (MRSA ATCC BAA-44 [2]; [7]) [µg/mL]	fold of potentiation (MRSA ATCC BAA-44 [1])	further results
Cc1onc(-c2ccccc2)c1C(=O)N[C@@H]1C(=O)N2[C@@H]1SC(C)(C)[C@@H]2C(=O)O [oxacillin]	0.5 µg/mL	64 (≈ 159 µM)	–	–
C=C1CCC[C@@H]2Nc3c(F)cc(Br)cc3[C@]12CCN (stereo in doubt) [Cpd 11b, 2-(6-Bromo-8-fluoro-4-methylidene-2,3,4,4a,9,9a-hexahydro-1H-carbazol-4a-yl)ethan-1-amine]	–	–	–	GI50 (HeLa cells): 16.2 µg/mL (≈ 49.8 µM)
CC1=C(C(=O)O)N2C(=O)[C@@H](NC(=O)[C@H](N)c3ccccc3)[C@H]2SC1 [cephalexin]	16 µg/mL	256 (≈ 737 µM)	16	–
COc1cccc(OC)c1C(=O)N[C@@H]1C(=O)N2[C@@H]1SC(C)(C)[C@@H]2C(=O)O [methicillin]	8 µg/mL	128 (≈ 336 µM)	16	–
2-(6-Bromo-4-methylidene-2,3,4,4a,9,9a-hexahydro-1H-carbazol-4a-yl)-N-(4-chlorobenzenesulfonyl)-S-(4-chlorophenyl)ethane-1-sulfonamido [Cpd 1h]	–	–	–	MRC meropenem (MRSA ATCC 33592 [3]): >32 µg/mL; MRC amox/clav (MRSA ATCC BAA-44 [4]; amoxicillin/clavulanic acid at 4/2 μg/ml): >32 µg/mL; MRC cefazolin (MRSA ATCC BAA-44 [4]; cefazolin at 8 μg/ml): >32 µg/mL; MRC methicillin (MRSA ATCC BAA-44 [4]; in presence of methicillin): >32 µg/mL
C[C@@H](O)[C@H]1C(=O)N2C(C(=O)O)=C(SCCN=CN)C[C@H]12 [imipenem]	.0625 µg/mL	0.5 (≈ 1.67 µM)	8	–
Cc1nnc(SCC2=C(C(=O)O)N3C(=O)[C@@H](NC(=O)Cn4cnnn4)[C@H]3SC2)s1 [cefazolin]	4 µg/mL	128 (≈ 282 µM)	32	–
CN(C)[C@@H]1C(O)=C(C(N)=O)C(=O)[C@@]2(O)C(O)=C3C(=O)c4c(O)cccc4[C@@](C)(O)[C@H]3C[C@@H]12 [tetracycline]	64 µg/mL	64 (≈ 144 µM)	1	–
C[C@@H](O)[C@H]1C(=O)N2C(C(=O)O)=C(S[C@@H]3CN[C@H](C(=O)N(C)C)C3)[C@H](C)[C@H]12 [meropenem]	0.25 µg/mL	4 (≈ 10.4 µM)	16	MIC (MRSA ATCC 33592 [5]): 16 µg/mL
amoxicillin/clavulanate	4/2	–	8	MIC (MRSA ATCC BAA-44 [2]): 32/16
C=C1CCCC2Nc3c(Cl)cc(Cl)cc3C12CCNS(=O)(=O)c1ccc(Cl)cc1 (stereo not shown) [Cpd 6k, 4-Chloro-N-[2-(6,8-dichloro-4-methylidene-2,3,4,4a,9,9a-hexahydro-1H-carbazol-4a-yl)ethyl]benzene-1-sulfonamide]	–	–	–	GI50 at 24 h [6]: 13.6 µg/mL (≈ 28.8 µM)
C=C1CCCC2Nc3c(F)cc(Br)cc3C12CCNS(=O)(=O)c1ccc(Br)c(F)c1 (stereo not shown) [Cpd 13k, 4-Bromo-N-[2-(6-bromo-8-fluoro-4-methylidene-2,3,4,4a,9,9a-hexahydro-1H-carbazol-4a-yl)ethyl]-3-fluorobenzene-1-sulfonamide]	–	–	–	GI50 at 24 h [6]: 17.5 µg/mL (≈ 31.1 µM)
